Measured values taken from US8921372B2, “Inhibitors of hepatitis C virus” (Theravance Biopharma R&D IP, LLC, priority 2010, dated 2014).

Key:
[1] = test system: HCV genotype 1b replicon cell line (APC144; Huh7 cell background); assay: HCV Genotype 1b Replicon Assay (Renilla luciferase readout); format: cell-based; conditions: Hepatitis C virus, Huh-7; read-out: Genotype 1b (pEC50 class, HCV genotype 1b replicon assay) (converted)
How it was run: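 Reported as pEC50 derived from a 4-parameter fit of Renilla luciferase activity against concentration. Replicon cells (APC144, Huh7 background) were exposed to compound for 48 h in G418-free medium with final 0.5% DMSO, after seeding at 10,000 cells/well and 4 h adherence.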

[2] = test system: HCV genotype 1a replicon cell line (APC89; Huh7.5 cell background); assay: HCV Genotype 1a Replicon Assay (NS3-specific protease activity readout); format: cell-based; conditions: Hepatitis C virus, 72 hour incubation, read-out: Genotype 1a (pEC50 class, HCV genotype 1a replicon assay) (converted)
How it was run: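 EC50 values came from a 4-parameter robust fit of fluorescence (ex 340, em 509 nm) produced by NS3-specific protease in lysates, assayed with 15 μM FRET substrate for 20 min at 37° C, after 48 or 72 hours of compound exposure (0.5% DMSO) of Huh7.5-derived APC89 genotype 1a replicon cells.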

| SMILES | EC50 [1] [nM] | EC50 [2] [nM] |
| --- | --- | --- |
| CNC(=O)N1CCC[C@@]1(C)C(=O)N1CCN(c2ccc(C(=O)Nc3cc(OC(F)(F)F)c(-c4ccc(-c5c[nH]c([C@@H]6CCCN6C(=O)[C@@H](NC(=O)OC)C(C)C)n5)cc4)cc3Cl)cn2)[C@H](C)C1 [Example 27-73] | < 0.1 | < 0.1 |
| COC(=O)N[C@H](C(=O)N1CCC[C@H]1c1nc(-c2ccc(-c3cc(Cl)c(NC(=O)c4ccc(N5CCN(C(=O)[C@H]6CC6(C)C)C[C@H]5C)nc4)cc3C(F)(F)F)cc2)c[nH]1)C(C)C [Example 61, [(S)-1-((S)-2-{4-[5′-Chloro-4′-({6-[(R)-4-((S)-2,2-dimethyl-cyclopropanecarbonyl)-2-methyl-piperazin-1-yl]-pyridine-3-carbonyl}-amino)-2′-trifluoromethyl-biphenyl-4-yl]-1H-imidazol-2-yl}-pyrrolidine-1-carbonyl)-2-methyl-propyl]-carbamic acid methyl ester] | < 0.1 | < 0.1 |
| CNC(=O)N1CCN(c2ccc(C(=O)Nc3cc(OC(F)(F)F)c(-c4ccc(-c5c[nH]c([C@@H]6CCCN6C(=O)[C@@H](NC(=O)OC)C(C)C)n5)cc4)cc3F)cn2)[C@H](C)C1 [Example 53, ((S)-1-{(S)-2-[4-(5′-Fluoro-4′-{[6-OR)-2-methyl-4-methylcarbamoyl-piperazin-1-yl)-pyridine-3-carbonyl]-amino}-2′-trifluoromethoxy-biphenyl-4-yl)-1H-imidazol-2-yl]-pyrrolidine-1-carbonyl}-2-methyl-propyl)-carbamic acid methyl ester] | < 0.1 | < 0.1 |
| COC(=O)N[C@H](C(=O)N1CCC[C@H]1c1nc(-c2ccc(-c3cc(F)c(NC(=O)c4ccc(N5CCN(C(=O)[C@]6(C)CCCN6C(=O)CO)C[C@H]5C)nc4)cc3OC(F)(F)F)cc2)c[nH]1)C(C)C [Example 27-48] | < 0.1 | < 0.1 |
| COC(=O)N[C@H](C(=O)N1CCC[C@H]1c1nc(-c2ccc(-c3ccc(NC(=O)c4ccc(N5CCN(C(=O)[C@H]6CC6(C)C)C[C@H]5C)nc4)cc3)cc2)c[nH]1)C(C)C [Example 14, [(S)-1-((S)-2-{4-[4′-({6-[(R)-4-((S)-2,2-Dimethyl-cyclopropane-carbonyl)-2-methyl-piperazin-1-yl]-pyridine-3-carbonyl}-amino)-biphenyl-4-yl]-1H-imidazol-2-yl}-pyrrolidine-1-carbonyl)-2-methyl-propyl]-carbamic acid methyl ester] | < 0.1 | < 0.1 |
| COC(=O)N[C@H](C(=O)N1CCC[C@H]1c1nc(-c2ccc(-c3cc(F)c(NC(=O)c4ccc(N5C[C@H](C)N(C(=O)c6cc[nH]n6)C[C@H]5C)nc4)cc3OC(F)(F)F)cc2)c[nH]1)C(C)C [Example 60] | < 0.1 | < 0.1 |
| CNC(=O)N1CCN(c2ccc(C(=O)Nc3cc(F)c(-c4ccc(-c5c[nH]c([C@@H]6CCCN6C(=O)[C@@H](NC(=O)OC)C(C)C)n5)cc4)c(F)c3)cn2)[C@H](C)C1 [Example 43] | < 0.1 | 0.1 to 1 |
| COC(=O)N[C@H](C(=O)N1CCC[C@H]1c1nc(-c2ccc(-c3ccc(C(=O)Nc4ccc(N5CCN(C(=O)[C@]6(C)CCCN6C(=O)C(C)(C)O)C[C@H]5C)nc4)cc3OC(F)(F)F)cc2)c[nH]1)C(C)C [Example 69] | < 0.1 | 0.1 to 1 |
| CNC(=O)N1CCN(c2ccc(C(=O)Nc3ccc(-c4ccc(-c5c[nH]c([C@@H]6CCCN6C(=O)[C@@H](NC(=O)OC)C(C)C)n5)cc4)c(OC(F)(F)F)c3)cn2)[C@H](C)C1 [Example 26] | < 0.1 | < 0.1 |
| COC(=O)N[C@H](C(=O)N1CCC[C@H]1c1nc(-c2ccc(-c3cc(F)c(NC(=O)c4ccc(N5CCN(C(=O)[C@]6(C)CCCN6C(=O)NC(C)C)C[C@H]5C)nc4)cc3OC(F)(F)F)cc2)c[nH]1)C(C)C [Example 27-43] | < 0.1 | < 0.1 |
| COC(=O)N[C@H](C(=O)N1CCC[C@H]1c1nc(-c2ccc(-c3cc(F)c(NC(=O)c4ccc(N5CCN(C(=O)[C@H]6CC6(C)C)C[C@H]5C)nc4)cc3C(F)(F)F)cc2)c[nH]1)C(C)C [Example 51, [(S)-1-((S)-2-{4-[4′-({6-[(R)-4-((S)-2,2-Dimethyl-cyclopropanecarbonyl)-2-methyl-piperazin-1-yl]-pyridine-3-carbonyl}-amino)-5′-fluoro-2′-trifluoromethyl-biphenyl-4-yl]-1H-imidazol-2-yl}-pyrrolidine-1-carbonyl)-2-methyl-propyl]carbamic acid methyl ester] | < 0.1 | < 0.1 |
| COC(=O)N[C@H](C(=O)N1CCC[C@H]1c1nc(-c2ccc(-c3ccc(NC(=O)c4ccc(N5CCN(C(=O)c6c[nH]cn6)C[C@H]5C)nc4)cc3F)cc2)c[nH]1)C(C)C [Example 48] | < 0.1 | 0.1 to 1 |
| COC(=O)N[C@H](C(=O)N1CCC[C@H]1c1nc(-c2ccc(-c3ccc(NC(=O)c4ccc(N5CCN(C(=O)[C@H]6CC6(C)C)C[C@H]5C)nc4)cc3F)cc2)c[nH]1)C(C)C [Example 45, [(S)-1-((S)-2-{5-[4′-({6-[(R)-4-((S)-2,2-Dimethyl-cyclopropanecarbonyl)-2-methyl-piperazin-1-yl]-pyridine-3-carbonyl}-amino)-2′-fluoro-biphenyl-4-yl]-1H-imidazol-2-yl}-pyrrolidine-1-carbonyl)-2-methyl-propyl]-carbamic acid methyl ester] | < 0.1 | < 0.1 |
| COC(=O)N[C@H](C(=O)N1CCC[C@H]1c1nc(-c2ccc(-c3ccc(NC(=O)c4ccc(N5C[C@H](C)N(C(=O)[C@]6(C)CCCN6C(=O)[C@@H](NC(=O)OC)C(C)C)C[C@H]5C)nc4)cc3C)c(C)c2)c[nH]1)C(C)C [Example 40] | < 0.1 | 0.1 to 1 |
| COC(=O)N[C@H](C(=O)N1CCC[C@H]1c1nc(-c2ccc(-c3cc(F)c(NC(=O)c4ccc(N5CCN(C(=O)[C@]6(C)CCCN6C(=O)OC)C[C@H]5C)nc4)cc3OC(F)(F)F)cc2)c[nH]1)C(C)C [Example 27-42] | < 0.1 | < 0.1 |
| COC(=O)N[C@H](C(=O)N1CCC[C@H]1c1nc(-c2ccc(-c3ccc(NC(=O)c4ccc(N5CCN(C(=O)C6CC6)CC5)cc4)cc3F)cc2)c[nH]1)C(C)C [Example 8, {(S)-1-[(S)-2-(4-{4′-[4-(4-cycloproanecarbonyl-piperazin-1-yl)-benzoylamino]-2′-fluoro-biphenyl-4-yl}-1H-imidazol-2-yl)-pyrrolidine-1-carbonyl]-2-methyl-propyl}-carbamic acid methyl ester] | < 0.1 | 1 to 10 |
| COC(=O)N[C@H](C(=O)N1CCC[C@H]1c1nc(-c2ccc(-c3ccc(NC(=O)c4ccc(N5CCN(C(=O)[C@H]6CC6(C)C)C[C@H]5C)nc4)cc3Cl)cc2)c[nH]1)C(C)C [Example 49, [(S)-1-((S)-2-{4-[2′-Chloro-4′-({6-[(R)-4-((S)-2,2-dimethyl-cyclopropanecarbonyl)-2-methyl-piperazin-1-yl]-pyridine-3-carbonyl}-amino)-biphenyl-4-yl]-1H-imidazol-2-yl}-pyrrolidine-1-carbonyl)-2-methyl-propyl]-carbamic acid methyl ester] | < 0.1 | < 0.1 |
| COC(=O)N[C@H](C(=O)N1CCC[C@H]1c1nc(-c2ccc(-c3ccc(C(=O)Nc4ccc(N5CCN(C(=O)[C@]6(C)CCCN6C(=O)[C@@H](NC(=O)OC)C(C)C)C[C@H]5C)nc4)cc3OC(F)(F)F)cc2)c[nH]1)C(C)C [Example 56] | < 0.1 | 0.1 to 1 |
| COCC(=O)N1CCC[C@@]1(C)C(=O)N1CCN(c2ccc(NC(=O)c3ccc(-c4ccc(-c5c[nH]c([C@@H]6CCCN6C(=O)[C@@H](NC(=O)OC)C(C)C)n5)cc4)c(OC(F)(F)F)c3)cn2)[C@H](C)C1 [Example 66] | < 0.1 | < 0.1 |
| COC(=O)N[C@H](C(=O)N1CCC[C@H]1c1nc(-c2ccc(-c3c(F)cc(NC(=O)c4ccc(N5CCN(C(=O)C6CC6)C[C@H]5C)nc4)cc3F)cc2)c[nH]1)C(C)C [Example 42] | < 0.1 | 0.1 to 1 |
| COC(=O)N[C@H](C(=O)N1CCC[C@H]1c1nc(-c2ccc(-c3ccc(NC(=O)c4ccc(N5CCN(C(=O)C6CC6)C[C@H]5C)nc4)cc3F)cc2)c[nH]1)C(C)C [Example 46] | < 0.1 | 0.1 to 1 |
| COC(=O)N[C@H](C(=O)N1CCC[C@H]1c1nc(-c2ccc(-c3c(F)cc(NC(=O)c4ccc(N5CCN(C(=O)[C@H]6CC6(C)C)C[C@H]5C)nc4)cc3F)cc2)c[nH]1)C(C)C [Example 41, [(S)-1-((S)-2-{5-[4′-({6-[(R)-4-((S)-2,2-Dimethyl-cyclopropanecarbonyl)-2-methyl-piperazin-1-yl]-pyridine-3-carbonyl}-amino)-2′,6′-difluoro-biphenyl-4-yl]-1H-imidazol-2-yl}-pyrrolidine-1-carbonyl)-2-methyl-propyl]-carbamic acid methyl ester] | < 0.1 | < 0.1 |
| COC(=O)N[C@H](C(=O)N1CCC[C@H]1c1nc(-c2ccc(-c3cc(F)c(NC(=O)c4ccc(N5CCN(C(=O)CNC(C)=O)C[C@H]5C)nc4)cc3OC(F)(F)F)cc2)c[nH]1)C(C)C [Example 27-37] | < 0.1 | < 0.1 |
| COCC(=O)N1CCC[C@@]1(C)C(=O)N1CCN(c2ccc(C(=O)Nc3cc(OC(F)(F)F)c(-c4ccc(-c5c[nH]c([C@@H]6CCCN6C(=O)[C@@H](NC(=O)OC)C(C)C)n5)cc4)cc3F)cn2)[C@H](C)C1 [Example 27-46] | < 0.1 | < 0.1 |
| COC(=O)N[C@H](C(=O)N1CCC[C@H]1c1nc(-c2ccc(-c3cc(Cl)c(NC(=O)c4ccc(N5C[C@H](C)N(C(=O)c6c[nH]cn6)C[C@H]5C)nc4)cc3OC(F)(F)F)cc2)c[nH]1)C(C)C [Example 28-39] | < 0.1 | < 0.1 |
